Columns and labels:
[1] = test system: IICR (IP3 induced calcium release) in CHO cells; assay: Assay of IICR (IP3 induced calcium release)-inhibiting action; assay type: cell-based, Chinese hamster; details: Cricetulus griseus, CHO, CHO cells, 10 μM ATP, read-out: IICR level (percentage of inhibition); for inhibition at 10 µM: test compound 10 μmol; for inhibition at 30 µM: test compound 30 μmol; for inhibition at 100 µM: test compound 100 μmol
Procedure: The extracellular fluid (i.e., medium) of cultured CHO cells was replaced by BSS containing calcium. One minute later, a test compound was added. Two minutes later, 10 μM ATP was added. The IICR-inhibiting action levels at different compound concentrations after the addition of ATP were determined as the percentage of inhibition (%) by evaluating the influence of the compound on the degree of increase in the intracellular calcium concentration.
(§1) Hereafter, the numerals in parentheses written after the TG level, the SOCE level, and the IICR level correspond to the test compound concentrations. The number following the name of each title compound used in the Examples below represents a compound ID number designated arbitrarily by the present inventors.

[2] = test system: SOCE (store operated calcium entry) in CHO cells; assay: Assay of SOCE (store operated calcium entry)-inhibiting action; assay type: cell-based, Chinese hamster; details: Cricetulus griseus, CHO, CHO cells, thapsigargin, read-out: SOCE level (percentage of inhibition); for inhibition at 10 µM: test compound 10 μmol; for inhibition at 30 µM: test compound 30 μmol; for inhibition at 100 µM: test compound 100 μmol
Procedure: The extracellular fluid (i.e., medium) of cultured Chinese hamster ovary (CHO) cells was replaced by BSS containing no calcium. One minute later, a test compound was added. Two minutes later, 1 μM thapsigargin was added to cause depletion of the intracellular calcium store. Nine minutes later, calcium chloride (final concentration: 2 mM) was added to the extracellular fluid. The SOCE-inhibiting action levels at different compound concentrations after the addition of calcium chloride were determined as the percentage of inhibition (%) by evaluating the influence of the compound on the degree of increase in the intracellular calcium concentration.
as §1

Row | Structure (SMILES) | inhibition at 10 µM [1] | inhibition at 30 µM [1] | inhibition at 100 µM [1] | inhibition at 10 µM [2] | inhibition at 30 µM [2] | inhibition at 100 µM [2]
1 | CC(C)N(CCC(=O)c1ccccn1)Cc1ccccc1 [Example 73, 2-(N-isopropylbenzyl)aminoethyl-2-pyridylketone] | 70% | 100% | 90% | 0% | 0% | 10%
2 | CN(CCC(=O)c1cccc2ccccc12)Cc1ccccc1 [Example 74, 2-(N-methylbenzyl)aminoethyl-1-naphthylketone] | 30% | 50% | 70% | 0% | 10% | 30%
3 | O=C(CCN(c1ccccc1)c1ccccc1)c1ccc2ccccc2c1 [Example 75, 2-(N-diphenyl)aminoethyl-2-naphthylketone] | 0% | 0% | 0% | 0% | 0% | 0%
4 | COc1ccc(C(=O)CCN(C)Cc2ccccc2)cc1 [Example 76, 2-(N-methylbenzyl)aminoethyl-4-methoxyphenylketone] | 0% | 10% | 30% | 0% | 10% | 20%
5 | CN(CCC(=O)c1ccccn1)Cc1ccccc1 [Example 77, 2-(N-methylbenzyl)aminoethyl-2-pyridylketone] | 0% | 10% | 30% | 0% | 20% | 30%
6 | Cc1cccc2cc(C(=O)CCN(C)Cc3ccccc3)ccc12 [Example 78, 2-(N-methylbenzyl)aminoethyl-5-methyl-2-naphthylketone] | 20% | 70% | 90% | 10% | 20% | 50%
7 | Cc1cccc2cc(C(=O)CCN(Cc3ccccc3)C(C)C)ccc12 [Example 79, 2-(N-isopropylbenzyl)aminoethyl-5-methyl-2-naphthylketone] | 70% | 90% | 90% | 10% | 30% | 70%
8 | Cc1cccc2cc(C(=O)CCN(c3ccccc3)c3ccccc3)ccc12 [Example 80, 2-(N-diphenyl)aminoethyl-5-methyl-2-naphthylketone] | 10% | 50% | 90% | 10% | 30% | 50%
9 | Cc1cccc2cc(C(=O)CCN3CCCCC3)ccc12 [Example 81, 2-piperidinoethyl-5-methyl-2-naphthylketone] | 0% | 10% | 30% | 0% | 10% | 40%
10 | CC(C)N(CCC(=O)c1cccc2ccccc12)Cc1ccccc1 [Example 82, 1-(N-benzylisopropyl)aminoethyl-1-naphthylketone] | 50% | 70% | 100% | 0% | 0% | 20%
11 | CC(C)N(CCC(=O)c1ccc2c(Cl)cccc2c1)Cc1ccccc1 [Example 84, 2-(N-isopropylbenzyl)aminoethyl-5-chloro-2-naphthylketone] | 90% | 100% | 100% | 20% | 30% | 70%
12 | CC(C)N(CCC(=O)c1ccc(Oc2ccccc2)cc1)Cc1ccccc1 [Example 85, 2-(N-isopropylbenzyl)aminoethyl-4-phenoxyphenylketone] | 50% | 50% | 95% | 10% | 20% | 30%
13 | CN(CCC(=O)c1ccc(Oc2ccccc2)cc1)Cc1ccccc1 [Example 86, 2-(N-methylbenzyl)aminoethyl-4-phenoxyphenylketone] | 30% | 70% | 95% | 0% | 20% | 50%
14 | O=C(CCNCC(O)c1ccccc1)c1ccc(Oc2ccccc2)cc1 (stereo not drawn) [Example 87, 2-(N-2-hydroxy-2-phenylethyl)aminoethyl-4-phenoxyphenylketone] | 10% | 10% | 90% | 0% | 0% | 20%
15 | O=C(CCN1CCCCC1)c1ccc2c(Cl)cccc2c1 [Example 88, 2-piperidinoethyl-5-chloro-2-naphthylketone] | 10% | 10% | 100% | 0% | 0% | 20%
16 | O=C(CCN(CCO)Cc1ccccc1)c1ccc2c(Cl)cccc2c1 [Example 89, 2-(N-2-hydroxyethylbenzyl)aminoethyl-5-chloro-2-naphthylketone] | 30% | 80% | 100% | 0% | 10% | 80%
17 | CCC(CO)(CO)NCCC(=O)c1ccc2c(Cl)cccc2c1 [Example 90, 2-(N-1,1-dihydroxymethylpropyl)aminoethyl-5-chloro-2-naphthylketone] | 10% | 20% | 100% | 0% | 10% | 30%
18 | CCCCN(CCO)CCC(=O)c1ccc2c(Cl)cccc2c1 [Example 91, 2-(N-2-hydroxyethylbutyl)aminoethyl-5-chloro-2-naphthylketone] | 20% | 90% | 100% | 0% | 10% | 90%
19 | C=CCC(=O)c1ccc2ccccc2c1 [Example 92, Allyl-2-naphthylketone] | 0% | 0% | 30% | 0% | 0% | 0%
20 | C=CCC(=O)c1cccc2ccccc12 [Example 93, Allyl-1-naphthylketone] | 20% | 70% | 90% | 0% | 0% | 30%
21 | CC(C)(C)N(CCC(=O)c1ccccn1)Cc1ccccc1 [Example 94, 2-(N-t-butylbenzyl)aminoethyl-2-pyridylketone] | 30% | 90% | 100% | 0% | 0% | 0%
22 | O=C(CCN1CCCCC1)c1ccccn1 [Example 95, 2-piperidinoethyl-2-pyridylketone] | 0% | 10% | 10% | 0% | 0% | 0%
23 | O=C(CCN(CCO)Cc1ccccc1)c1ccccn1 [Example 96] | 20% | 30% | 100% | 0% | 0% | 0%
24 | COC(=O)C(CCC(=O)c1ccc2ccccc2c1)C(C)=O (stereo not drawn) [Example 97, 3-acetyl-3-methoxycarbonylpropyl-2-naphthylketone] | 0% | 10% | 70% | 0% | 10% | 90%
25 | CCC(=O)C(CCC(=O)c1ccc2ccccc2c1)C(=O)OC (stereo not drawn) [Example 98, 3-propionyl-3-methoxycarbonylpropyl-2-naphthylketone] | 0% | 0% | 0% | 0% | 10% | 60%
